{"source": "patent US5288709A", "about": "“Erythromycin derivatives” (priority 1991, dated 1994)", "experiment_in_all_cases": "In-vitro antimicrobial activity primary screen (agar dilution MIC)", "assay_type_in_all_cases": "cell-based", "key": {"[1]": {"test_system": "Enterobacter aerogenes ATCC 13048", "settings": "Klebsiella aerogenes, ATCC13048, 24 h", "in_short": "(§1)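 BHI agar dilution MIC, 35-37° C overnight (20-24 h), replicator inoculation at 1:100 or 1:10 for slow strains. Endpoint: no growth, slight haze or sparse colonies versus compound-free plate.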"}, "[2]": {"test_system": "Enterococcus faecium ATCC 8043", "settings": "Enterococcus faecium, ATCC8043, 24 h", "in_short": "as §1"}, "Escherichia coli DC-2": {"test_system": "Escherichia coli DC-2", "settings": "Escherichia coli, DC2, 24 h", "in_short": "as §1"}, "Escherichia coli H560": {"test_system": "Escherichia coli H560", "settings": "Escherichia coli, H560, 24 h", "in_short": "as §1"}, "Escherichia coli JUHL": {"test_system": "Escherichia coli JUHL", "settings": "Escherichia coli, 24 h", "in_short": "as §1"}, "Escherichia coli SS": {"test_system": "Escherichia coli SS", "settings": "BHI agar, 20-24 h, read-out: MIC", "in_short": "as §1"}, "[3]": {"test_system": "Klebsiella pneumoniae ATCC 8045", "settings": "Klebsiella pneumoniae, ATCC8045, 24 h", "in_short": "as §1"}, "[4]": {"test_system": "Micrococcus luteus ATCC 4698", "settings": "Micrococcus luteus, ATCC4698, 24 h, BHI agar, 20-24 h", "in_short": "as §1"}, "[5]": {"test_system": "Micrococcus luteus ATCC 9341", "settings": "ATCC9341, BHI agar, 20-24 h, read-out: MIC", "in_short": "as §1"}, "[6]": {"test_system": "Providencia stuartii CMX 640", "settings": "Providencia stuartii, CMX640, 24 h", "in_short": "as §1"}, "[7]": {"test_system": "Pseudomonas aeruginosa A5007", "settings": "Pseudomonas aeruginosa, A5007, 24 h", "in_short": "as §1"}, "[8]": {"test_system": "Pseudomonas aeruginosa BMH10", "settings": "Pseudomonas aeruginosa, BMH10, 24 h, BHI agar, 20-24 h", "in_short": "as §1"}, "[9]": {"test_system": "Pseudomonas aeruginosa K799/WT", "settings": "Pseudomonas aeruginosa, K799/WT, 24 h", "in_short": "as §1"}, "Pseudomonas cepacia 2961": {"test_system": "Pseudomonas cepacia 2961", "settings": "Burkholderia cepacia, 2961, 24 h, BHI agar, 20-24 h", "in_short": "as §1"}, "[10]": {"test_system": "Staphylococcus aureus 45 RAR2", "settings": "Staphylococcus aureus, 45RAR2, 24 h, BHI agar, 20-24 h", "in_short": "as §1"}, "Staphylococcus aureus 45": {"test_system": "Staphylococcus aureus 45", "settings": "Staphylococcus aureus, 45, 24 h, BHI agar, 20-24 h", "in_short": "as §1"}, "[11]": {"test_system": "Staphylococcus aureus 642A", "settings": "BHI agar, 20-24 h, read-out: MIC", "in_short": "as §1"}, "[12]": {"test_system": "Staphylococcus aureus A5177", "settings": "Staphylococcus aureus, A5177, 24 h", "in_short": "as §1"}, "[13]": {"test_system": "Staphylococcus aureus ATCC 6538P", "settings": "Staphylococcus aureus, ATCC6538P, 24 h, BHI agar, 20-24 h", "in_short": "as §1"}, "[14]": {"test_system": "Staphylococcus aureus NCTC 10649", "settings": "NCTC10649, BHI agar, 20-24 h, read-out: MIC", "in_short": "as §1"}, "[15]": {"test_system": "Staphylococcus epidermidis 3519", "settings": "Staphylococcus epidermidis, 3519, 24 h, BHI agar, 20-24 h", "in_short": "as §1"}, "[16]": {"test_system": "Streptococcus agalactiae CMX 508", "settings": "20-24 h", "in_short": "as §1"}, "[17]": {"test_system": "Streptococcus bovis A5169", "settings": "Streptococcus equinus, A5169, 24 h, BHI agar, 20-24 h", "in_short": "as §1"}, "[18]": {"test_system": "Streptococcus pyrogenes 2548 INDUC", "settings": "BHI agar, 20-24 h", "in_short": "as §1"}, "[19]": {"test_system": "Streptococcus pyrogenes EES61", "settings": "BHI agar, 20-24 h", "in_short": "as §1"}, "[20]": {"test_system": "Staphylococcus aureus CMX 553", "settings": "Staphylococcus aureus, CMX553, 24 h, BHI agar, 20-24 h, read-out: MIC", "in_short": "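MIC is read as the lowest compound level yielding no growth, slight haze or sparse colonies on the inoculum spot, relative to a drug-free plate. Strains were replicator-inoculated (1:100 dilution) onto BHI agar plates holding twelve dilutions and held at 35-37 °C for 20-24 h, with erythromycin A as comparator.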"}, "Acinetobacter SP CMX 669": {"test_system": "Acinetobacter SP CMX 669", "settings": "Acinetobacter, SPCMX669, 24 h, Acinetobacter SP CMX 669; BHI agar, 20-24 h", "in_short": "as §1"}, "[21]": {"test_system": "Pseudomonas aeruginosa K799/61", "settings": "Pseudomonas aeruginosa, K799/61, 24 h, Pseudomonas aeruginosa K799/61; BHI agar, 20-24 h", "in_short": "as §1"}}, "note": "Read-outs that look alike come from different tables or passages of the source."}
{"compound": "CC[C@H]1OC(=O)[C@H](C)[C@@H](O[C@H]2C[C@@](C)(OC)[C@@H](O)[C@H](C)O2)[C@H](C)[C@@H](O[C@@H]2O[C@H](C)C[C@H](N(C)C)[C@H]2O)[C@](C)(OC)C[C@@H](C)C2=C(C)C(=O)[C@]1(C)O2", "note": "[Example 27, 9,10-Dihehydro-9-deoxo-11,12-dideoxy-9,12-epoxy-6-O-methyl-11-oxoerythromycin A]", "values": [{"measurement": "MIC", "setting": "[1]", "result": "> 100", "unit": "µg/mL"}, {"measurement": "MIC", "setting": "[2]", "result": 0.1, "unit": "µg/mL"}, {"measurement": "MIC", "setting": "Escherichia coli DC-2", "result": "> 100", "unit": "µg/mL"}, {"measurement": "MIC", "setting": "Escherichia coli H560", "result": 100, "unit": "µg/mL"}, {"measurement": "MIC", "setting": "Escherichia coli JUHL", "result": "> 100", "unit": "µg/mL"}, {"measurement": "MIC", "setting": "Escherichia coli SS", "result": 0.78, "unit": "µg/mL"}, {"measurement": "MIC", "setting": "[3]", "result": "> 100", "unit": "µg/mL"}, {"measurement": "MIC", "setting": "[4]", "result": 0.2, "unit": "µg/mL"}, {"measurement": "MIC", "setting": "[5]", "result": 0.05, "unit": "µg/mL"}, {"measurement": "MIC", "setting": "[6]", "result": "> 100", "unit": "µg/mL"}, {"measurement": "MIC", "setting": "[7]", "result": "> 100", "unit": "µg/mL"}, {"measurement": "MIC", "setting": "[8]", "result": 100, "unit": "µg/mL"}, {"measurement": "MIC", "setting": "[9]", "result": "> 100", "unit": "µg/mL"}, {"measurement": "MIC", "setting": "Pseudomonas cepacia 2961", "result": "> 100", "unit": "µg/mL"}, {"measurement": "MIC", "setting": "[10]", "result": 0.39, "unit": "µg/mL"}, {"measurement": "MIC", "setting": "Staphylococcus aureus 45", "result": 3.1, "unit": "µg/mL"}, {"measurement": "MIC", "setting": "[11]", "result": 0.39, "unit": "µg/mL"}, {"measurement": "MIC", "setting": "[12]", "result": 0.39, "unit": "µg/mL"}, {"measurement": "MIC", "setting": "[13]", "result": 0.39, "unit": "µg/mL"}, {"measurement": "MIC", "setting": "[14]", "result": 0.39, "unit": "µg/mL"}, {"measurement": "MIC", "setting": "[15]", "result": 0.39, "unit": "µg/mL"}, {"measurement": "MIC", "setting": "[16]; Streptococcus agalactiae, CMX508, 24 h, BHI agar", "result": 0.05, "unit": "µg/mL"}, {"measurement": "MIC", "setting": "[17]", "result": 0.05, "unit": "µg/mL"}, {"measurement": "MIC", "setting": "[18]; read-out: MIC", "result": 100, "unit": "µg/mL"}, {"measurement": "MIC", "setting": "[19]; Streptococcus, EES61, 24 h", "result": 0.05, "unit": "µg/mL"}, {"measurement": "MIC", "setting": "[20]", "result": 0.39, "unit": "µg/mL"}]}
{"compound": "CC[C@H]1OC(=O)[C@H](C)[C@@H](O[C@H]2C[C@@](C)(OC)[C@@H](O)[C@H](C)O2)[C@H](C)[C@@H](O[C@@H]2O[C@H](C)C[C@H](N(C)C)[C@H]2O)[C@](C)(OC)C[C@@H](C)[C@@H]2O[C@@]1(C)C(=O)[C@H]2C", "note": "[Example 28B]", "values": [{"measurement": "MIC", "setting": "Acinetobacter SP CMX 669", "result": 12.5, "unit": "µg/mL"}, {"measurement": "MIC", "setting": "[1]", "result": "> 100", "unit": "µg/mL"}, {"measurement": "MIC", "setting": "[2]", "result": 0.1, "unit": "µg/mL"}, {"measurement": "MIC", "setting": "Escherichia coli DC-2", "result": "> 100", "unit": "µg/mL"}, {"measurement": "MIC", "setting": "Escherichia coli H560", "result": "> 100", "unit": "µg/mL"}, {"measurement": "MIC", "setting": "Escherichia coli JUHL", "result": "> 100", "unit": "µg/mL"}, {"measurement": "MIC", "setting": "Escherichia coli SS", "result": 0.39, "unit": "µg/mL"}, {"measurement": "MIC", "setting": "[3]", "result": "> 100", "unit": "µg/mL"}, {"measurement": "MIC", "setting": "[4]", "result": 0.1, "unit": "µg/mL"}, {"measurement": "MIC", "setting": "[5]", "result": 0.05, "unit": "µg/mL"}, {"measurement": "MIC", "setting": "[6]", "result": "> 100", "unit": "µg/mL"}, {"measurement": "MIC", "setting": "[7]", "result": "> 100", "unit": "µg/mL"}, {"measurement": "MIC", "setting": "[8]", "result": 50, "unit": "µg/mL"}, {"measurement": "MIC", "setting": "[21]", "result": 3.1, "unit": "µg/mL"}, {"measurement": "MIC", "setting": "[9]", "result": "> 100", "unit": "µg/mL"}, {"measurement": "MIC", "setting": "Pseudomonas cepacia 2961", "result": "> 100", "unit": "µg/mL"}, {"measurement": "MIC", "setting": "[10]", "result": 0.39, "unit": "µg/mL"}, {"measurement": "MIC", "setting": "Staphylococcus aureus 45", "result": 3.1, "unit": "µg/mL"}, {"measurement": "MIC", "setting": "[11]", "result": 0.39, "unit": "µg/mL"}, {"measurement": "MIC", "setting": "[12]", "result": 0.39, "unit": "µg/mL"}, {"measurement": "MIC", "setting": "[13]", "result": 0.39, "unit": "µg/mL"}, {"measurement": "MIC", "setting": "[14]", "result": 0.39, "unit": "µg/mL"}, {"measurement": "MIC", "setting": "[15]", "result": 0.39, "unit": "µg/mL"}, {"measurement": "MIC", "setting": "[16]; CMX508, BHI agar, read-out: MIC", "result": 0.02, "unit": "µg/mL"}, {"measurement": "MIC", "setting": "[17]", "result": 0.05, "unit": "µg/mL"}, {"measurement": "MIC", "setting": "[18]; Streptococcus, 2548INDUC, 24 h", "result": 3.1, "unit": "µg/mL"}, {"measurement": "MIC", "setting": "[19]; read-out: MIC", "result": 0.02, "unit": "µg/mL"}, {"measurement": "MIC", "setting": "[20]", "result": 0.39, "unit": "µg/mL"}]}
